Measured values from ChEMBL document CHEMBL1201862, “PubChem BioAssay data set” (2004).
Activity calls are given as the source filed them.

How the values were obtained:
cells [1] = assay type: functional, cell-based
cells [2] = assay type: functional, cell-based; remark: listed apart in the source
Fatty acid synthase [3] = molecular target: T1, Fatty acid synthase (Homo sapiens, UniProt P49327); experiment: inhibition of human FAS-TE enzyme activity – biochemical, kinetic fluorescence intensity, dose response (AID 624326); assay type: functional;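 also: rate of fluorescence rise from hydrolysis of a fluorogenic O-methyl fluorescein ester substrate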
Fatty acid synthase [4] = molecular target: T1, Fatty acid synthase; experiment: inhibition of human FAS-TE enzyme activity – biochemical, endpoint fluorescence intensity, uHTS hits, dose response (AID 624327); assay type: functional;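 also: fluorescence from hydrolysis of an O-methyl fluorescein acyl ester substrate by the enzyme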
[5] = molecular target: T2, Calpain-2 catalytic subunit (Sus scrofa, UniProt P43367); experiment: m-calpain protease blockers, concentration series – biochemical, fluorogenic peptide substrate, dose response (AID 1420); assay type: functional
T2 sequence (P43367 whole entry): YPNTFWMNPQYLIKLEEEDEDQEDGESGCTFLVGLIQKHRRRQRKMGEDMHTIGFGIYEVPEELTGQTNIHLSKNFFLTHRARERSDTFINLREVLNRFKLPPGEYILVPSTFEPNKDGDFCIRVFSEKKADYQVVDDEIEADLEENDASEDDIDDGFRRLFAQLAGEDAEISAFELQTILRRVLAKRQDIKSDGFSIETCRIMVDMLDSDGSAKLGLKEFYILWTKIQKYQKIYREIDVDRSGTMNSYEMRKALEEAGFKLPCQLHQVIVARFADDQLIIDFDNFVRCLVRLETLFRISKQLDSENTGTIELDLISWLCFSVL

[6] = THP-1 cell cytotoxicity, dose response, cytotoxicity control for non-replicating M. tuberculosis project (AID 489025); assay type: functional
Leucine aminopeptidase = molecular target: T3, Leucine aminopeptidase (Plasmodium falciparum 3D7, UniProt Q8IL11); experiment: P. falciparum M17LAP inhibitors, primary screen, biochemical, fluorogenic H-Leu-NHMec substrate, 1536-well (AID 1619); assay type: functional
T3 sequence (Q8IL11 whole entry): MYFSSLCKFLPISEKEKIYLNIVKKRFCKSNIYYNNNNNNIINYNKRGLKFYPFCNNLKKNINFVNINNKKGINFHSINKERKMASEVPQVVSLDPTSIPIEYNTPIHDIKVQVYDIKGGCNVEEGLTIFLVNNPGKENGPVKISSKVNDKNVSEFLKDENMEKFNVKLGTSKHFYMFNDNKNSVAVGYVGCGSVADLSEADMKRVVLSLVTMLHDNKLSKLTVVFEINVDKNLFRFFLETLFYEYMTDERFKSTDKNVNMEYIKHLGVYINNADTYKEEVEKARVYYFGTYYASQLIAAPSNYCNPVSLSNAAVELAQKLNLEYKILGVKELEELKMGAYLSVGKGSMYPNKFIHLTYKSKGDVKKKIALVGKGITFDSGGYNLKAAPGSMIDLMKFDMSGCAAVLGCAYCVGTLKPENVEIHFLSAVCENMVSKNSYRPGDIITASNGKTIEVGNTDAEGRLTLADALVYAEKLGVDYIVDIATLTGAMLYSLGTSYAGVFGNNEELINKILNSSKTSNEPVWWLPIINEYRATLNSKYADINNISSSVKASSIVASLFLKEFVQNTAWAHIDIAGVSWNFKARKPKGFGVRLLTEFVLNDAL

[7] = molecular target: T4, Rac GTPase-activating protein 1 (Homo sapiens, UniProt Q9H0H5); experiment: blockers of MgcRacGAP-driven Rac1 GTP hydrolysis – biochemical, ADP Hunter fluorescence, primary and confirmatory, confirmation (AID 624330); assay type: functional
T4 sequence (Q9H0H5 whole entry): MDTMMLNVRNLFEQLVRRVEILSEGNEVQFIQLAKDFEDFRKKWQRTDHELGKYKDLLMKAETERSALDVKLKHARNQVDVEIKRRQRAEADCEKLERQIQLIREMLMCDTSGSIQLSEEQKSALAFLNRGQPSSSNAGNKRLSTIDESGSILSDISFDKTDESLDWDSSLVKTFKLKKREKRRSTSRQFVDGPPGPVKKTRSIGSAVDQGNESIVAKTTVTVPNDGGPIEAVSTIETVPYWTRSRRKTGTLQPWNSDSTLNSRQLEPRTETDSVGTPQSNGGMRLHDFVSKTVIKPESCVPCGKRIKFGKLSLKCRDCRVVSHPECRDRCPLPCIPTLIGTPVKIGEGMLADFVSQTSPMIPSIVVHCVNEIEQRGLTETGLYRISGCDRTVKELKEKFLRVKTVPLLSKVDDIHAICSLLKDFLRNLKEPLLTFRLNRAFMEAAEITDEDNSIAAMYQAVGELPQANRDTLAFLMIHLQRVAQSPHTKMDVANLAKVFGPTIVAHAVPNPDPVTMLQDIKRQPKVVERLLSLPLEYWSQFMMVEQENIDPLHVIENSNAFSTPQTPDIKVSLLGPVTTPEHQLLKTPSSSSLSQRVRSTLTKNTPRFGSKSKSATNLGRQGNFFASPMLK

T1 sequence (P49327 whole entry): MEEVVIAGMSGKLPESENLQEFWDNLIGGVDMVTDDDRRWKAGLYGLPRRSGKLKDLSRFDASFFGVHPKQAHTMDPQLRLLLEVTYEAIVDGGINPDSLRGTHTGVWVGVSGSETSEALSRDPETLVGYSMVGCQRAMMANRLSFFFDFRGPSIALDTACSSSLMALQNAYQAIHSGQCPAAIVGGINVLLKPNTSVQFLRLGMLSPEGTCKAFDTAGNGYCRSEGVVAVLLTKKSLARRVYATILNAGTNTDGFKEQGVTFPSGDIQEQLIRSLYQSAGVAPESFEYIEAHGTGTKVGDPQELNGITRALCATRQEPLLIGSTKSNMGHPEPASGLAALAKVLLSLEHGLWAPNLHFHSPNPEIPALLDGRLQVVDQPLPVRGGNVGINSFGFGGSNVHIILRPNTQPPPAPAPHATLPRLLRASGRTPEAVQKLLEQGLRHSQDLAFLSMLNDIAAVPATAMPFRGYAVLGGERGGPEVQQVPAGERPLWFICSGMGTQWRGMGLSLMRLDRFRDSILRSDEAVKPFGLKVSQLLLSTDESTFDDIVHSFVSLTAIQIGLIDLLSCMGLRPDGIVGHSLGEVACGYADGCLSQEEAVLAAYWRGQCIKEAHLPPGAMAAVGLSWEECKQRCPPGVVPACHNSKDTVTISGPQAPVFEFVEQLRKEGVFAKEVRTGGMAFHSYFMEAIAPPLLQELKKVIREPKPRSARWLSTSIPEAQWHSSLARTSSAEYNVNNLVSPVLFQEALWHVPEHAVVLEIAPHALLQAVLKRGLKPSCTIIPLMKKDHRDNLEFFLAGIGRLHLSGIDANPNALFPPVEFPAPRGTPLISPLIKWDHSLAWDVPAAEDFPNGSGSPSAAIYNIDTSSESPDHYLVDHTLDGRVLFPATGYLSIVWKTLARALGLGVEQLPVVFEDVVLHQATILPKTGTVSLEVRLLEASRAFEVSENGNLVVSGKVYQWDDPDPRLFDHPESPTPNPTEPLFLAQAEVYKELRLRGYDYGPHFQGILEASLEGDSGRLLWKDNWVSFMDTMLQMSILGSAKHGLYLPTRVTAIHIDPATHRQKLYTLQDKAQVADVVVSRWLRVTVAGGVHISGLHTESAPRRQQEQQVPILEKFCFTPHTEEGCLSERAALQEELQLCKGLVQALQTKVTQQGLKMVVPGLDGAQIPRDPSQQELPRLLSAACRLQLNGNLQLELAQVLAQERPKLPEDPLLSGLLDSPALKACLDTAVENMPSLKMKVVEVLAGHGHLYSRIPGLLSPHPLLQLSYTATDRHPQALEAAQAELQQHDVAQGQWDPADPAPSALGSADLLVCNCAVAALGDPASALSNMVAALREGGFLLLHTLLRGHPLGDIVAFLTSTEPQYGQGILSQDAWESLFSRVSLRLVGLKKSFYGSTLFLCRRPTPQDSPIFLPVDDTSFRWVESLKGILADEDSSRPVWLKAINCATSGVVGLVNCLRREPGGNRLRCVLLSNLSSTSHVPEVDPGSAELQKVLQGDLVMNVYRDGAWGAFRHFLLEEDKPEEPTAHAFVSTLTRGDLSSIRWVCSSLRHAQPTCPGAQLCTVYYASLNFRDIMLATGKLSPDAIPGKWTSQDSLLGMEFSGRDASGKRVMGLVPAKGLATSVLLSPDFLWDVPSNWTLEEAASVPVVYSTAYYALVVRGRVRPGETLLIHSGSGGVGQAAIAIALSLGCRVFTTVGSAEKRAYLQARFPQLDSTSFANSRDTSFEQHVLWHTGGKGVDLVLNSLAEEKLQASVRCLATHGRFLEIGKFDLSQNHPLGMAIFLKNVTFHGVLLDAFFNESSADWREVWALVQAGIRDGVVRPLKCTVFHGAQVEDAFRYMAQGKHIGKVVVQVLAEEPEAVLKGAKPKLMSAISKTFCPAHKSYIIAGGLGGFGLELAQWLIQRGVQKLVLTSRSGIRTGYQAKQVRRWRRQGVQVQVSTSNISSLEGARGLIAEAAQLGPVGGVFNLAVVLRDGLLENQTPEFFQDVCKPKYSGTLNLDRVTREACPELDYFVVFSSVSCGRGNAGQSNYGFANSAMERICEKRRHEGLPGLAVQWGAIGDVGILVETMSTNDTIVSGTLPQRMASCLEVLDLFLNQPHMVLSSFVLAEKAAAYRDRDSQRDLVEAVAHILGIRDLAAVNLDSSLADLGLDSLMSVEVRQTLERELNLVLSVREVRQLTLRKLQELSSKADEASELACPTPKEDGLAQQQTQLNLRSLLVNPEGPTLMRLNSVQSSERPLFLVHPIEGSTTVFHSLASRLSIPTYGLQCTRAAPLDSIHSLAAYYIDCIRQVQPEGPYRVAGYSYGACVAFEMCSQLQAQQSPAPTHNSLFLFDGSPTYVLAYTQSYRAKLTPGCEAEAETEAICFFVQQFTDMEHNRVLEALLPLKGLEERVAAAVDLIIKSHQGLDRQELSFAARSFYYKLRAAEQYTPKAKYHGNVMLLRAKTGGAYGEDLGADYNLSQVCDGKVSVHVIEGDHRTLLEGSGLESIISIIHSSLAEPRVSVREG

Row | SMILES | IC50 (Fatty acid synthase [3]) | IC50 (Fatty acid synthase [4]) | IC50 (Leucine aminopeptidase) | further results
1 | COc1ccc(C/C(C)=N/NS(=O)(=O)c2ccc(Br)cc2)cc1 | – | – | – | EC50 (cells [1]): > 350 µM (not active); EC50 (cells [2]): > 350 µM (not active)
2 | CN(c1ccccc1)S(=O)(=O)c1cccc(NC(=O)CCNC(=O)c2ccc([N+](=O)[O-])cc2)c1 | 9.59 µM (active) | 7.63 µM (active) | – | –
3 | COC(=O)c1cc(C(=O)NCc2ccc3c(c2)OCO3)cc([N+](=O)[O-])c1 | 11.7 µM (active) | 11.1 µM (active) | – | –
4 | Cc1onc(-c2c(Cl)cccc2Cl)c1C(=O)N=C(N)N1CCCC1 | – | – | – | EC50 (cells [1]): > 350 µM (not active); EC50 (cells [2]): > 350 µM (not active)
5 | CC(C)=CC1C(C(=O)Nc2ccc(Br)cn2)C1(C)C (centres undefined) | – | – | – | IC50 [5]: 6.34 µM (not active); CC50 [6]: > 40 µM (active)
6 | CCOC(=O)[C@@H]1[C@H]2COc3cc(OC)ccc3[C@H]2N2C(=O)N(c3cccc(Cl)c3)C(=O)[C@@]12C | 13.6 µM (active) | 23.7 µM (inactive) | – | –
7 | CCn1cc([N+](=O)[O-])c(C(=O)N2N=C(c3ccccc3)CC2c2ccc([N+](=O)[O-])cc2)n1 (centres undefined) | 13.2 µM (active) | 15.6 µM (active) | – | –
8 | CCc1nc2c(OCc3ccc(Cl)cc3)cccn2c1N(C=O)Cc1ccccc1 | 3.71 µM (active) | 6.9 µM (active) | – | –
9 | COc1ccc(-c2cc(=O)oc3c(C)c(OCc4nn[nH]n4)ccc23)cc1 | 5.32 µM (active) | 9.18 µM (active) | – | –
10 | CN1C2CCC1/C(=C/c1cccn1C)C(=O)/C2=C\c1cccn1C | – | – | 51.9 µM (active) | –
11 | CCOc1ccc(Nc2nnc(S)s2)cc1 | – | – | < 1 µM (active) | IC50 [7]: 54.8 µM (active)
12 | COc1cccc(N/N=C(\C#N)S(=O)(=O)C(C)(C)C)c1 | – | – | 26.7 µM (active) | –
13 | CC1CCN(C(=O)COC(=O)c2cc([N+](=O)[O-])ccc2N2CCOCC2)CC1 | 5.23 µM (active) | 3.58 µM (active) | – | –
14 | Cc1cccc(N=C(S)N2CCC(N(C)CC3CCCO3)CC2)c1 (centres undefined) | – | – | – | EC50 (cells [1]): > 350 µM (not active); EC50 (cells [2]): > 350 µM (not active)
15 | CCC1(C)Cc2sc3c(=O)[nH]c(=S)[nH]c3c2CO1 (centres undefined) | – | – | 29.3 µM (active) | –
16 | O=C(c1cc2ccccc2o1)N1CCN(Cc2ccc3c(c2)OCO3)CC1 | – | – | – | EC50 (cells [1]): > 350 µM (not active); EC50 (cells [2]): > 350 µM (not active)
17 | CC1=NNC(=O)C1CCC(=O)N/N=C\c1cccc(Cl)c1 (centres undefined) | – | – | 20.9 µM (active) | –
18 | Cc1cc(=O)oc2cc(OCC(=O)N3CCN(C(C)c4ccccc4)CC3)c(Cl)cc12 (centres undefined) | 8.55 µM (active) | 8.39 µM (active) | – | –
19 | CCCc1nc2ccccc2c(=O)n1/N=C/c1ccccc1O | – | – | – | EC50 (cells [1]): > 350 µM (not active); EC50 (cells [2]): > 350 µM (not active)
20 | Cc1noc(NS(=O)(=O)c2ccc(NC(=O)Nc3ccc(Cl)c(Cl)c3)cc2)c1C | – | – | 9.03 µM (active) | –
21 | CCCOc1ccc(N2C(=O)CC(SCCN)C2=O)cc1 (centres undefined) | – | – | 12 µM (active) | –
22 | O=C(CN1C(=O)C2C3C=CC(C3)C2C1=O)NCC1COc2ccccc2O1 (centres undefined) | – | – | 2.19 µM (active) | –
23 | CN1CCN(Cc2nc3ccccc3c(=O)n2Cc2nc(-c3ccccc3F)cs2)CC1 | – | – | – | EC50 (cells [1]): > 350 µM (not active); EC50 (cells [2]): 45.4 µM (active)
24 | Nc1[nH]nc2nc(N3CCCC3)nc(-c3ccccc3)c12 | – | – | 33.7 µM (active) | –
25 | COc1ccc([N+](=O)[O-])cc1NC(=O)C1(c2ccccc2)CCOCC1 | 16.5 µM (active) | 19.6 µM (active) | – | –
26 | CCOc1ccc(CC(=O)OCn2nnc3ccccc3c2=O)cc1 | – | – | – | IC50 [5]: 24.4 µM (not active)
27 | C=CCNC(=O)/C(=C/c1cn(-c2ccccc2)nc1-c1cccc([N+](=O)[O-])c1)NC(=O)c1ccccc1 | – | – | – | EC50 (cells [1]): > 350 µM (not active); EC50 (cells [2]): > 350 µM (not active)
28 | CCN(CC)c1ccc(NC(=O)Cn2nnc(-c3cccc(OC)c3OC)n2)c(C)c1 | – | – | < 1 µM (active) | EC50 (cells [1]): > 350 µM (not active); EC50 (cells [2]): > 350 µM (not active)
29 | O=C(O)c1cnn2cc(-c3n[nH]cc3[N+](=O)[O-])cnc12 | – | – | 13.3 µM (active) | –
